Data: patent US20090176870A1, “TGF-BETA MODULATORS AND METHODS FOR USING THE SAME” (MARSHFIELD CLINIC, priority 2005, published 2009)

Experiments:
[1] = system: TGF-β1 activity in CHO cells carrying the plasmid pTARE-Luc; test: pTARE luciferase reporter assay in CHO cells; assay type: cell-based, Chinese hamster; settings: compound 1 μL/mL with added TGF-β1 25 ng/mL, FIG. 2B
Protocol: The pTARE luciferase reporter system was purchased from Stratagene (La Jolla, Calif.) and transfected into CHO (Chinese Hamster Ovary) cells that were purchased from ATCC (American Type Culture Collection). The plasmid pSV2neo was co-transfected with pTARE at a 40 fold lower concentration to allow for selection of colonies that received plasmid DNA using G418. Luciferase assays were performed as described using Luciferase assay system and reporter lysis buffer (Promega, Madison, Wis.). Luciferase was quantitated using a luminometer (Turner Designs, Inc., Sunnyvale, Calif.).
Compounds of Table 1 (see Example 1 above) were further tested for their ability to modulate TGF-β1 activity. Briefly, the CHO cells carrying the plasmid pTARE-Luc were treated either with each compound individually (1 μL/mL) or with added TGF-β1 (25 ng/mL). Without being bound by any theory, it is believed that testing the compound by itself in this assay allows the identification of candidate TβRII agonists while testing the chemical in the presence of TGF-β1 allows the identification of candidate TGF-β1 antagonists.

[2] = system: CHO cells; test: CHO cell growth, tritiated thymidine incorporation; assay type: cell-based, Chinese hamster; settings: for amount of radioactivity incorporated into CHO cells: tritiated thymidine
Protocol: (§1) Mv1Lu cells were purchased from ATCC. Growth inhibition assays for Mv1Lu and CHO cells were performed as described by Danielpour et al., in J. Cell. Physiol., 1989, 138, 79-86, using 0.2% fetal bovine serum to limit binding proteins present in serum.
Chinese hamster ovarian (i.e., CHO) cells were cultured in the presence of compounds and tested for growth in the presence of tritiated thymidine. […] The reported value is the average of duplicate assays.

[3] = system: TGF-β1 growth inhibition of Mv1Lu cells; test: Mv1Lu growth inhibition assay with TGF-β1; assay type: cell-based, mink; settings: TGF-β1 1.5 ng/mL serially diluted to 0.095 ng/mL with compound, FIGS. 4A-4D
Protocol: Mv1Lu cells were purchased from ATCC. Growth inhibition assays for Mv1Lu and CHO cells were performed as described by Danielpour et al., in J. Cell. Physiol., 1989, 138, 79-86, using 0.2% fetal bovine serum to limit binding proteins present in serum. Mv1Lu cells were cultured in the presence of a standard TGF-β dilution curve starting at 1.5 ng/mL and serially diluted to 0.047 ng/mL or in the presence of TGF-β1 (1.5 ng/mL serially diluted to 0.095 ng/mL) with the compound. For each tested compound, one assay contained only the compound and no added TGF-β1.

[4] = system: TGF-β1 stimulated growth of CHO cells; test: CHO cell growth stimulation by TGF-β1; assay type: cell-based, Chinese hamster; settings: 1 L (FIG. 5A) and 2 μL (FIG. 5B) of blocking compound
Protocol: as §1

[5] = Precipitate formation / solubility; assay type: physicochemical; settings: for Solubility: Table 3; for precipitate formation when diluted into water: room temperature, centrifugation at 17,000×G
[6] = target: ^125I labeled TGF-β1 (Homo sapiens, UniProt P01137); test: 125I labeled TGF-β1 remaining in solution after incubation with compound and centrifugation; settings: for Amount of ^125I labeled TGF-β1 in solution: 0.5 μL compound in 100 μL DMEM, 0.2% FBS overnight, 90 μL supernatant counted
Protocol: About 10 μL of ^125I labeled TGF-β1 (22.78 μCi/ml, 6.3 pmole/ml) was incubated with 0.5 μL of the compound in 100 μL of DMEM, 0.2% FBS overnight and then centrifuged. […] However, for compound NSC 119889 there was approximately a 40% increase in the amount of ^125I that remained in solution relative to the control. While this might be due to the compound decreasing adherence of TGF-β to the microcentrifuge tube, the lack of precipitation of the ^125I labeled TGF-β is consistent with the compounds blocking interaction of TGF-β1 with the receptor possibly by direct interaction with the receptor.

[7] = target: T1, TβRIII (Homo sapiens, UniProt Q03167); test: Soluble TβRIII receptor assay with 125I labeled TGF-β1; assay type: binding; settings: for Amount of ^125I labeled TGF-β1 bound to TβRIII: soluble receptor assay, control 25048
T1 construct: purchased R&D Systems
T1 sequence (Q03167 21-787 limits assumed): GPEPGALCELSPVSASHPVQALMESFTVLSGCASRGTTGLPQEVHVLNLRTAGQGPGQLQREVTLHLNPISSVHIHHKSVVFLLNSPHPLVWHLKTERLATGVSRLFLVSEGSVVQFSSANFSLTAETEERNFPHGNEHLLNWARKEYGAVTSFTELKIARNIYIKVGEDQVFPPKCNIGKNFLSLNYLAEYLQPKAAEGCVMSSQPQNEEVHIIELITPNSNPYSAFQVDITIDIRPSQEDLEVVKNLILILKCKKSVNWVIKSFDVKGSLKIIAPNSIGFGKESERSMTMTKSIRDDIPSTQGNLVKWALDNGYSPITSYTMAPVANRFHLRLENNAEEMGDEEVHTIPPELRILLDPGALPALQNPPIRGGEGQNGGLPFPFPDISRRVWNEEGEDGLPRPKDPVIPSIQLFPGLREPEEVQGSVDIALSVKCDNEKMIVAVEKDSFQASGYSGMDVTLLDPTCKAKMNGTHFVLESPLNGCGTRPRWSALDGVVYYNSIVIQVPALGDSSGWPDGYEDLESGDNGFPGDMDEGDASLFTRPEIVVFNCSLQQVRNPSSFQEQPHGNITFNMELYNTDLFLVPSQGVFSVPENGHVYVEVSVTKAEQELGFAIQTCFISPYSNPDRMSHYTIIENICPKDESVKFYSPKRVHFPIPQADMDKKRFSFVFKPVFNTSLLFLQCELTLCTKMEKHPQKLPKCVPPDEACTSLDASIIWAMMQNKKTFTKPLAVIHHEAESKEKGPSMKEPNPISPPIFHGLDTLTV
Protocol: The compound NSC 119889 and related molecules also block soluble TGF-β receptor type III (TβRIII). TβRIII binds TGF-β1 and TGF-β2 and is involved in presenting TGF-β2 to TβRII. […] TβRIII was purchased from R&D Systems (Minneapolis, Minn.). It was used at concentration of 500 ng/mL in the soluble receptor assay when Immulon 2HB plates were used and at 1 μg/mL when Immulon 1B plates were used.

[8] = target: T2, TβRII (Homo sapiens, UniProt P37173); test: Soluble TβRII binding assay with 125I labeled TGF-β1; settings: I-125 TGF-β1, increasing concentration of competitor, FIG. 6
T2 construct: purchased R&D Systems
Protocol: Immulon 1B or 2 HB 96 well plates (Dynex Technologies, Inc., Chantilly, Va.) were coated with 100 μL/well of 500 ng/mL TβRII (R&D Systems, Minneapolis, Minn.) in phosphate buffered saline overnight at 4° C. and then blocked for 1 hr with 150 μL/well of 1% bovine serum albumin, 150 mM NaCl, 100 mM tris-HCl, pH 7.6. Following washing with PBS/0.05% Tween 20 (wash buffer, i.e., “WB”) samples were serially diluted in 1 mg/mL BSA, 0.15 M NaCl, 100 mM tris-HCl, pH 7.6, 0.05% Tween 20 containing 5 ng/mL of ^125I labeled TGF-β1 as described by Frolik et al., in J. Biol. Chem., 1984, 259, 10995-11000. Samples were incubated in the wells with TβRII for one hour at room temperature and then the plates were washed with WB. Individual wells were separated and counted.
To identify novel organic chemicals that block TGF-B activity, about 30,000 chemicals from the National Cancer Institute Developmental Therapeutics program open repository were screened. This repository contains about 140,000 chemicals. For screening, soluble TBRII was attached to an immulon 2 HB plate and then blocked with BSA. About 1 μL of each test chemical was diluted from the stock plate into 125 μL of dilution buffer containing 5 ng/mL I-125 labeled TGF-β1. In some cases, 1 μL of four chemicals each was combined to allow higher throughput. […]

Sequence of ^125I labeled TGF-β1 (P01137 279-390 limits assumed): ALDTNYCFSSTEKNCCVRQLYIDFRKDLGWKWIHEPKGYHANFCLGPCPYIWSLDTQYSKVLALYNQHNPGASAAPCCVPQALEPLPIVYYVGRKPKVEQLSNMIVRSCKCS
T2 sequence (P37173 23-166 limits assumed, species assumed): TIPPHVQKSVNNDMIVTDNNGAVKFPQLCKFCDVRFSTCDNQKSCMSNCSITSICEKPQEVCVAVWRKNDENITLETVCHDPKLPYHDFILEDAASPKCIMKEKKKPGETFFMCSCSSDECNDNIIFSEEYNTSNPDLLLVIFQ

Row | Compound | luciferase activity in the presence of TGF-β1 [1] | amount of radioactivity incorporated into CHO cells ([2]; Experiment 1, average of duplicate assays) | amount of radioactivity incorporated into CHO cells ([2]; Experiment 2, average of duplicate assays) | growth of CHO cells (in words) ([2]; two experiments) | blocking of growth inhibition of TGF-β1 [3] | blocking of TGF-β1 stimulation of CHO cell growth [4] | Solubility [5] | precipitate formation when diluted into water [5] | Amount of ^125I labeled TGF-β1 in solution ([6]; first value column) | increase in the amount of ^125I that remained in solution relative to the control ([6]; relative to control) [%] | Amount of ^125I labeled TGF-β1 in solution ([6]; second value column) | Amount of ^125I labeled TGF-β1 in solution ([6]; third value column) | blocking of binding of ^125I labeled TGF-β1 to TβRIII (in words) [7] | Amount of ^125I labeled TGF-β1 bound to TβRIII [7] | binding competition vs TGF-β1 for soluble TβRII, effective concentration range [8]
1 | O=C(O)c1c(Br)c(Br)c(Br)c(Br)c1C1c2ccc(O)cc2Oc2cc(O)ccc21 [NSC 119889] | marked reduction in luciferase activity | 1475 | 936 | did not substantially inhibit growth of CHO cells | blocks growth inhibition of TGF-β1 | This stimulation was blocked | no ppt | form less or no precipitate | 38324 | ~40 | 27159 | 29239 | blocks binding of the ^125I labeled TGF-β1 to TβRIII | 746 | 
2 | O=C(O)C1CCCCC1c1c2ccc(=O)c(O)c-2oc2c(O)c(O)ccc12 (stereo not shown) [NSC 119910] |  |  |  |  |  |  | ppt | form precipitates |  |  | 24924 | 20587 |  |  | 
3 | O=C(O)/C=C/c1c2ccc(=O)c(O)c-2oc2c(O)c(O)ccc12 [NSC 119911] |  |  |  |  | blocks growth inhibition by TGF-β1 |  | ppt | form precipitates | 33990 |  | 25748 | 24534 |  | 769 | 
4 | CC1C2C=CC1C(c1c3ccc(=O)c(O)c-3oc3c(O)c(O)ccc13)C2C(=O)O (stereo not shown) [NSC 119913] |  |  |  |  |  |  | no ppt | form less or no precipitate |  |  | 27614 | 27960 |  |  | 
5 | O=C(O)CCc1c2ccc(=O)c(O)c-2oc2c(O)c(O)ccc12 [NSC 119915] |  |  |  |  | blocks growth inhibition of TGF-β1 |  | ppt | form precipitates | 33660 |  | 25308 | 20770 |  | 726 | 
6 | Oc1cc(O)c2c(c1)OC(c1ccc(O)c(O)c1)C(OC1(c3cc(O)c(O)c(O)c3)Oc3cc(O)cc(O)c3C(O)C1O)C2 (stereo not shown) [NSC 143101] |  |  |  |  |  |  | no ppt |  | 34567 |  |  |  |  |  | 
7 | O=C(O)c1c[nH]c2cc(OCc3ccccc3)ccc2c1=O [NSC 306960] | did not inhibit TGF-β1 induction of luciferase activity |  |  |  | did not block the growth inhibition activity of TGF-β1 |  | no ppt |  | 32155 |  |  |  |  |  | 
8 | TGF-β1: non-labeled TGF-β1 protein used as competitor for TβRII in the binding competition curve |  |  |  |  |  |  |  |  |  |  |  |  |  |  | nanomolar range
